Data taken from patent US8871728B2, “Non-peptide macrocyclic histone deacetylese (HDAC) inhibitors and methods of making and using thereof” (Georgia Tech Research Corporation, priority 2007, dated 2014).
Values after ≈ are worked out from the molar mass of the structure shown. Values joined by “and” are separate entries in the source; they are usually repeats but may differ in a detail not shown here. Equal values may be shown once. Read-outs that look alike come from different tables or passages of the source.

Tests used:
[1] = tested on: promastigote stage of L. donovani; assay: Antileishmanial Alamar blue fluorometric assay; type: cell-based; conditions: promastigotes
Description: (§1) The compounds described herein were also evaluated for parasitic activity against Plasmodium falciparum and Leismania donovani. P. falciparum and L. donovani are the causative parasites of malaria and leishmaniasis, two human diseases which constitute a serious threat to public health in tropical and sub-tropical countries. Antimalarial activity was evaluated in vitro using chloroquine-sensitive (D6, Sierra Leone) and chloroquine-resistant (W2, Indochina) strains of P. falciparum. Antileishmanial activity was evaluated in vitro against the promastigote stage of L. donovani.
(§2) Plasmodium growth inhibition was determined by a parasite lactate dehydrogenase assay using Malstat reagent. Inhibition of viability of the promastigote stage of L. donovani was determined using standard Alamar blue assay, modified to a fluorometric assay.
as §1, with “Macrocyclic histone deacetylase inhibitors” for “The compounds described herein”, “were” for “were also”
as §2

[2] = tested on: Plasmodium falciparum (D6 clone), chloroquine-sensitive; assay: Plasmodium growth inhibition, parasite lactate dehydrogenase assay (Malstat); type: cell-based; conditions: for IC50: Plasmodium falciparum; for Plasmodium falciparum (D6 clone) IC50: chloroquine-sensitive
Description: as §1, §2
as §1, with “Macrocyclic histone deacetylase inhibitors” for “The compounds described herein”, “were” for “were also”
as §2

[3] = tested on: Plasmodium falciparum (W2 clone), chloroquine-resistant; assay: as above; type: cell-based; conditions: for IC50: Plasmodium falciparum; for Plasmodium falciparum (W2 clone) IC50: chloroquine-resistant
Description: as §1, §2
as §1, with “Macrocyclic histone deacetylase inhibitors” for “The compounds described herein”, “were” for “were also”
as §2

[4] = tested on: HeLa nuclear extract HDAC1/2; assay: Fluor de Lys HDAC inhibition, HeLa nuclear extract; type: biochemical, human
Text: Fluor de Lys™ is a fluorescence based HDAC activity assay comprising a combination of fluorogenic Histone deAcetylase Lysyl substrate and a developer. The kit is a highly sensitive and convenient alternative to radiolabeled, acetylated histones or peptide/HPLC methods for the assay of histone deacetylases. This assay is based on the ability of HeLa nuclear extract, which is enriched in HDAC activity, to mediate the deacetylation of the acetylated lysine side chain of the Fluor de Lys substrate. The assay procedure requires two steps. First, incubation of the HeLa nuclear extract with the Fluor de Lys substrate results in substrate deacetylation and thus sensitizes it to the second step. In the second step, treatment of the deacetylated substrate with the Fluor de Lys developer produces a fluorophore. The substrate-developer reaction, under normal circumstances goes to completion in less than 1 min at 25° C. The kit used was the Fluorimetric Assay/Drug Discovery Kit—AK-500 Manual Fluorescent Assay System available from BIOMOL® International, Plymouth Meeting, Pa.
Each IC50 value was obtained by averaging three independent experiments.

HDAC8 [5] = biological target: T1, HDAC8 (Homo sapiens (Human), UniProt Q9BY41); assay: Fluor de Lys HDAC8 inhibition; type: biochemical; conditions: average of three independent experiments; Table 4; read-out: HDAC 8
T1 sequence (Q9BY41 whole entry): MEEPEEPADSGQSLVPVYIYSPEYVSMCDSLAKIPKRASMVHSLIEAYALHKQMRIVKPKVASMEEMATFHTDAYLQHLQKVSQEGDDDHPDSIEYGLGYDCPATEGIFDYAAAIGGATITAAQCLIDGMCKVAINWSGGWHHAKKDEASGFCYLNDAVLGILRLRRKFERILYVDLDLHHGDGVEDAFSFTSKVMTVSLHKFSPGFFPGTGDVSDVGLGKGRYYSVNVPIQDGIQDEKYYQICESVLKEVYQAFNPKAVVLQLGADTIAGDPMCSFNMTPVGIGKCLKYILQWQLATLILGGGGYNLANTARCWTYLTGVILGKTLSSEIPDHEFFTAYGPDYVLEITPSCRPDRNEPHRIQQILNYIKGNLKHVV

HDAC8 [6] = biological target: T1, HDAC8; assay: SAMDI mass spectrometry HDAC inhibition assay; type: biochemical; conditions: for inhibition at 10 µM / HDAC8 % inhibition: given if the IC50 was above 10 μM, at 10 μM; for HDAC8 inhibition, symbol / IC50: SAMDI; for IC50: read-out: HDAC8 IC50
Description: (§3) There is precedence that fluorescently labeled substrates can perturb enzyme activity and the effect of inhibitors. […] Additionally, 3-hydroxypyridine-2-ones are highly colored solids and might lead to false positive signals. Mindful of these facts, a label-free SAMDI (self-assembled monolayers for MALDI) mass spectrometry assay was also used to assess HDAC inhibition.
(§4) The SAMDI technique, wherein self-assembled monolayers (SAM) of alkanethiolates on gold are analyzed by matrix assisted laser desorption/ionization (MALDI) mass spectrometry, has been widely used to characterize many biochemical activities, including the deacetylase enzyme family.

HDAC1 = HDAC1 (Homo sapiens (Human), UniProt Q13547); assay: SAMDI mass spectrometry HDAC inhibition assay; type: biochemical; conditions: at 10 μM, given if the IC50 was above 10 μM
Chain of HDAC1 (Q13547 whole entry): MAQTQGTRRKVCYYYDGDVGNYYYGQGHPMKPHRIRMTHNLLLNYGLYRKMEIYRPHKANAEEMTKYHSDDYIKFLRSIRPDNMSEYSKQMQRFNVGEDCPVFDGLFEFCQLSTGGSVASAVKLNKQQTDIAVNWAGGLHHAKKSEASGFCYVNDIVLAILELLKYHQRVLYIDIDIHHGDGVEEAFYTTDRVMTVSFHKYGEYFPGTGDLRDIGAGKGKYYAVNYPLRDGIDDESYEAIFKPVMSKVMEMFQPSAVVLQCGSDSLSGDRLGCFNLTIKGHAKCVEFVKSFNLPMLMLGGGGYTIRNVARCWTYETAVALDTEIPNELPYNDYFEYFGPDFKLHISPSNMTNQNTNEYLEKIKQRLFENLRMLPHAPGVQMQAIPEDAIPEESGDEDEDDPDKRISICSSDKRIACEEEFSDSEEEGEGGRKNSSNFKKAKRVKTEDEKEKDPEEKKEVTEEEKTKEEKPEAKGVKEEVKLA
Description: as §3, §4

HDAC6 = HDAC6 (Homo sapiens (Human), UniProt Q9UBN7); assay: SAMDI mass spectrometry HDAC inhibition assay; type: biochemical; conditions: for HDAC6 inhibition, symbol / IC50: SAMDI; for inhibition at 10 µM: read-out: HDAC6 % inhibition; for IC50: read-out: HDAC6 IC50
Chain of HDAC6 (Q9UBN7 whole entry): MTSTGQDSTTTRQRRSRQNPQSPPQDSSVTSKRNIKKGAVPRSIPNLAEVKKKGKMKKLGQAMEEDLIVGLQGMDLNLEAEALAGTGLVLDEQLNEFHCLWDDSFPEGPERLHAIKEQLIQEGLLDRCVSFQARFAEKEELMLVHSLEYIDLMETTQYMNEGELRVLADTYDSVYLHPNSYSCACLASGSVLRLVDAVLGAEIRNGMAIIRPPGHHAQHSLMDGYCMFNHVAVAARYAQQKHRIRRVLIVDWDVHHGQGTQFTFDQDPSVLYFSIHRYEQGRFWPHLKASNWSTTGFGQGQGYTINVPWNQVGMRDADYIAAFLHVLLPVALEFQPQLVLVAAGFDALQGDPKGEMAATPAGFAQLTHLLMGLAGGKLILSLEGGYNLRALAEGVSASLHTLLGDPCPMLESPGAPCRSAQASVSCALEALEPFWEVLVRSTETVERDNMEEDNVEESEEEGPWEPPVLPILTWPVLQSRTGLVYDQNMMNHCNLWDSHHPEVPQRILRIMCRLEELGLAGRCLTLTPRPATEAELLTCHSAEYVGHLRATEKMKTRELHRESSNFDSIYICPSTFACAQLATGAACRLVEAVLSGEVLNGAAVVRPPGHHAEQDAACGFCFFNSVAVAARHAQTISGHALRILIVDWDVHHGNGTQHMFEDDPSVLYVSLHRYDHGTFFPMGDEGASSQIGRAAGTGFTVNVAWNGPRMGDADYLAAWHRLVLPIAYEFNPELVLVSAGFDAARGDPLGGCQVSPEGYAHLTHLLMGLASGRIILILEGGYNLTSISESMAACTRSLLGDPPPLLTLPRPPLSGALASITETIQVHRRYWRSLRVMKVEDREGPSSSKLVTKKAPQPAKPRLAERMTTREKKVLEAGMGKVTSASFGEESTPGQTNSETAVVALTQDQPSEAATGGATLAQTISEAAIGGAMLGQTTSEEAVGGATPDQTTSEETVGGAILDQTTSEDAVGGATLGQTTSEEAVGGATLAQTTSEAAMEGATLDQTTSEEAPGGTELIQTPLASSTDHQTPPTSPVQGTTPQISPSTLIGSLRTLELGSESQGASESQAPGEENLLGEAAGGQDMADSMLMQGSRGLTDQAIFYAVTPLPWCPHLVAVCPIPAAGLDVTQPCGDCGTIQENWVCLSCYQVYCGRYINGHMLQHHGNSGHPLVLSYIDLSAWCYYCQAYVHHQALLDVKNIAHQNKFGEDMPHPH
Description: as §3
as §4, with “family. The SAMDI assay was used to measure the inhibition constant (K1) of fragments against HDAC1, HDAC6 and HDAC8 using a previously identified preferred HDAC substrate.” for “family.”

[7] = D6, chloroquine-sensitive, read-out: Plasmodium falciparum (D6 clone) IC50
[8] = W2, chloroquine-resistant, read-out: Plasmodium falciparum (W2 clone) IC50
[9] = HeLa nuclear extract, average of three independent experiments, Table 4, read-out: HDAC ½

## C[C@@H]1[C@H](O)[C@@H](C)/C=C/C=C/C=C/C=C/C=C/C=C/C=C/[C@H](O[C@@H]2O[C@H](C)[C@@H](O)[C@H](N)[C@@H]2O)C[C@@H]2O[C@](O)(C[C@@H](O)C[C@@H](O)[C@H](O)CC[C@@H](O)C[C@@H](O)CC(=O)O[C@H]1C)C[C@H](O)[C@H]2C(=O)O [Amphotericine B, Amphotericin B, reference compound]
[1]
  Antileshmanial activity IC90: 0.32 µg/mL and 0.3 µg/mL

## C[C@@H]1CC[C@H]2[C@@H](C)C(=O)O[C@@H]3O[C@@]4(C)CC[C@@H]1[C@]32OO4 [Artemisinin, artemisinin, reference compound]
[2]; [7]
  IC50: 0.004 µg/mL (≈ 0.0142 µM)
[2]
  Plasmodium falciparum (D6 clone) IC50: 0.006 µg/mL
[3]; [8]
  IC50: 0.006 µg/mL (≈ 0.0213 µM)
[3]
  Plasmodium falciparum (W2 clone) IC50: 0.009 µg/mL

## CCN(CC)CCCC(C)Nc1ccnc2cc(Cl)ccc12 (stereo not drawn) [Chloroquine, chloroquine, reference compound]
[2]; D6, read-out: Plasmodium falciparum (D6 clone) IC50 (μg/ml), chloroquine-sensitive
  IC50: 0.017 µg/mL (≈ 0.0531 µM)
[2]
  Plasmodium falciparum (D6 clone) IC50: 0.011 µg/mL
[3]; W2, read-out: Plasmodium falciparum (W2 clone) IC50 (μg/ml), chloroquine-resistant
  IC50: 0.125 µg/mL (≈ 0.391 µM)
[3]
  Plasmodium falciparum (W2 clone) IC50: 0.14 µg/mL

## C=C1C[C@H](CC)C(C)(C)[C@H](C)[C@@H](C)N(C)C[C@H](C)CC(C)(C)[C@H](C[C@@H]2C[C@H](C)C[C@H](N(C)Cc3ccc(C(C)C)cc3)[C@H]2C)[C@@H](C)[C@H](C)[C@H]1C [Compd 4]
[2]; [7]
  IC50: 1.3 µg/mL (≈ 1.88 µM)
[2]; selective toxicity index, Vero versus D6
  S.I. D6: > 3.7
[3]; [8]
  IC50: 1.7 µg/mL (≈ 2.46 µM)
[3]; selective toxicity index, Vero versus W2, value in brackets
  S.I. (W2): > 2.8
[4]; Table 8, read-out: HDAC Inhibition IC50
  IC50: 88.8 nM

## CC[C@H]1OC(=O)[C@H](C)[C@@H](O[C@H]2C[C@@](C)(OC)[C@@H](O)[C@H](C)O2)[C@H](C)[C@@H](O[C@@H]2O[C@H](C)C[C@H](N(C)Cc3ccc(-c4cn(CCCCCCCCCC(=O)NO)nn4)cc3)[C@H]2O)[C@](C)(OC)C[C@@H](C)C(=O)[C@H](C)[C@@H](O)[C@]1(C)O [Compound 30, Clarithromycin-N-Phenyltriazolyldecahydroxamic acid]
[4]; [9]
  IC50: 223 nM

## CC[C@H]1OC(=O)[C@H](C)[C@@H](O[C@H]2C[C@@](C)(OC)[C@@H](O)[C@H](C)O2)[C@H](C)[C@@H](O[C@@H]2O[C@H](C)C[C@H](N(C)Cc3ccc(NC(=O)CCCCCCC(=O)NO)cc3)[C@H]2O)[C@](C)(O)C[C@@H](C)CN(C)[C@H](C)[C@@H](O)[C@]1(C)O [Compound 36, Azithromycin-arylalkyl hydroxamic acid]
HDAC8 [5]
  IC50: 6680 nM
[4]; [9]
  IC50: 107 nM

## CC[C@H]1OC(=O)[C@H](C)[C@@H](O)[C@H](C)[C@@H](O[C@@H]2O[C@H](C)C[C@H](N(C)Cc3ccc(NC(=O)CCCCCCC(=O)NO)cc3)[C@H]2O)[C@](C)(O)C[C@@H](C)CN(C)[C@H](C)[C@@H](O)[C@]1(C)O [Compound 38, Desclasinose-azithromycin-arylalkyl hydroxamic acid]
HDAC8 [5]
  IC50: 2320 nM
[4]; [9]
  IC50: 110 nM

## O=c1c(O)cccn1CCn1cc(-c2ccccc2)nn1 [Compound 159a, 1-Phenyltriazolylethyl-3-hydroxypyridine-2-one]
HDAC8 [6]
  inhibition at 10 µM: 15%
HDAC1
  inhibition at 10 µM: 12%
HDAC6
  HDAC6 inhibition, symbol: NI (No significant Inhibition (below 20% Inhibition))

## O=c1c(O)cccn1CCCn1cc(-c2ccccc2)nn1 [Compound 159b, 1-Phenyltriazolylpropyl-3-hydroxypyridine-2-one]
HDAC8 [6]
  inhibition at 10 µM: 47%
HDAC1
  inhibition at 10 µM: 8%
HDAC6
  inhibition at 10 µM: 41%

## O=c1c(O)cccn1CCCCn1cc(-c2ccccc2)nn1 [Compound 159c, 1-Phenyltriazolylbutyl-3-hydroxypyridine-2-one]
HDAC8 [6]
  HDAC8 % inhibition: 5%
  inhibition at 10 µM: 10%
HDAC1
  HDAC1 % inhibition: 12%
  inhibition at 10 µM: 15%
HDAC6
  HDAC6 inhibition, symbol: NI (No significant Inhibition (below 20% Inhibition))

## O=c1c(O)cccn1CCCCCn1cc(-c2ccccc2)nn1 [Compound 159d, 1-Phenyltriazolylpentyl-3-hydroxypyridine-2-one]
HDAC8 [6]
  HDAC8 % inhibition: 30%
HDAC1
  HDAC1 % inhibition: 43%
HDAC6
  HDAC6 inhibition, symbol: NI (No significant Inhibition (below 20% Inhibition))

## O=c1c(O)cccn1CCCCCCCn1cc(-c2ccccc2)nn1 [Compound 159f, 1-Phenyltriazolylheptyl-3-hydroxypyridine-2-one]
HDAC8 [6]
  HDAC8 % inhibition: 42%
HDAC1
  HDAC1 % inhibition: 2%
HDAC6; at 10 μM, given if the IC50 was above 10 μM
  HDAC6 % inhibition: 34%

## Oc1cccn(CCn2cc(-c3ccccc3)nn2)c1=S [Compound 161, 1-Phenyltriazolylethyl-3-hydroxypyridine-2-thione]
HDAC8 [6]
  inhibition at 10 µM: 56%
HDAC1
  inhibition at 10 µM: 21%
HDAC6
  inhibition at 10 µM: 14%

## Cc1ccc(-c2cn(CCCCCn3cccc(O)c3=O)nn2)cc1 [Compound 166a, 1-(4-Tolyl)triazolylpentyl-3-hydroxypyridine-2-one]
HDAC8 [6]
  inhibition at 10 µM: 15%
HDAC1
  inhibition at 10 µM: 66%
HDAC6
  HDAC6 inhibition, symbol: NI (No significant Inhibition (below 20% Inhibition))

## Cc1cccc(-c2cn(CCCCCn3cccc(O)c3=O)nn2)c1 [Compound 166b, 1-(3-Tolyl)triazolylpentyl-3-hydroxypyridine-2-one]
HDAC8 [6]
  HDAC8 inhibition, symbol: NI (No significant Inhibition (below 20% Inhibition))
HDAC1
  inhibition at 10 µM: 88%
HDAC6
  HDAC6 inhibition, symbol: NI (No significant Inhibition (below 20% Inhibition))

## N#Cc1ccc(-c2cn(CCCCCn3cccc(O)c3=O)nn2)cc1 [Compound 166d, 1-(4-Benzonitrile)triazolylpentyl-3-hydroxypyridine-2-one]
HDAC8 [6]
  inhibition at 10 µM: 26%
HDAC1
  inhibition at 10 µM: 70%
HDAC6
  HDAC6 inhibition, symbol: NI (No significant Inhibition (below 20% Inhibition))

## N#Cc1cccc(-c2cn(CCCCCn3cccc(O)c3=O)nn2)c1 [Compound 166e, 1-(3-Benzonitrile)triazolylpentyl-3-hydroxypyridine-2-one]
HDAC8 [6]
  HDAC8 inhibition, symbol: NI (No significant Inhibition (below 20% Inhibition))
HDAC1
  inhibition at 10 µM: 71%
HDAC6
  HDAC6 inhibition, symbol: NI (No significant Inhibition (below 20% Inhibition))

## CN(C)c1ccc(-c2cn(CCCCCn3cccc(O)c3=O)nn2)cc1 [Compound 166f, 1-(4-(N,N-dimethylaniline))triazolylpentyl-3-hydroxypyridine-2-one]
HDAC8 [6]
  inhibition at 10 µM: 28%
HDAC1
  inhibition at 10 µM: 59%
HDAC6
  HDAC6 inhibition, symbol: NI (No significant Inhibition (below 20% Inhibition))

## N#Cc1ccc(-c2cn(CCCCCn3cccc(O)c3=O)nn2)cc1C(F)(F)F [Compound 166g, 1-(4-(3-Trifluomethyl)-benzonitrile)triazolylpentyl-3-hydroxypyridine-2-one]
HDAC8 [6]
  inhibition at 10 µM: 14%
HDAC1
  inhibition at 10 µM: 71%
HDAC6
  HDAC6 inhibition, symbol: NI (No significant Inhibition (below 20% Inhibition))

## N#Cc1ccc(-c2cn(CCCCCn3cccc(O)c3=S)nn2)cc1 [Compound 167d, 1-(4-Benzonitrile)triazolylpentyl-3-hydroxypyridine-2-thione]
HDAC8 [6]
  IC50: 1460 nM
HDAC1
  inhibition at 10 µM: 33%
HDAC6
  IC50: 905 ± 249 nM

## CN(C)c1ccc(-c2cn(CCCCCn3cccc(O)c3=S)nn2)cc1 [Compound 167f]
HDAC8 [6]
  IC50: 1480 nM
HDAC1
  inhibition at 10 µM: 28%
HDAC6
  IC50: 1010 ± 425 nM

## N#Cc1ccc(-c2cn(CCCCCn3cccc(O)c3=S)nn2)cc1C(F)(F)F [Compound 167g, 1-(4-(3-Trifluomethyl)-benzonitrile)triazolylpentyl-3-hydroxypyridine-2-thione]
HDAC8 [6]
  IC50: 2260 nM
HDAC1
  inhibition at 10 µM: 55%
HDAC6
  IC50: 661 ± 121 nM
